We go through 28 molecules from patent US20240239775A1, “FXR REGULATOR, PREPARATION METHOD THEREFOR, PHARMACEUTICAL COMPOSITION THEREOF AND USE THEREOF” (QINGDAO RUIJI MEDICAL TECHNOLOGY CO., LTD., priority 2021, published 2024).

In general, IC50 refers to the concentration that gives 50% inhibition.

Structures are written as SMILES.

One experiment has as its target T1, FXR (Homo sapiens, UniProt Q96RI1).
T1 construct: 5 μL of 20 nM FXR-LBD Complete Coregulator buffer G; purchased ThermoFisher PV4833
T1 sequence (Q96RI1 262-486 limits assumed): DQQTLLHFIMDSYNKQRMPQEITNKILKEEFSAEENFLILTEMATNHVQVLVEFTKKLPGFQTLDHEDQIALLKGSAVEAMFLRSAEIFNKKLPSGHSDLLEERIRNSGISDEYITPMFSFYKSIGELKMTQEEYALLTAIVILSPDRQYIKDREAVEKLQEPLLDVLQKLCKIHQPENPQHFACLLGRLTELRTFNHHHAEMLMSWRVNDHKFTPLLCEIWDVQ
Description: FXR antagonist screening by TR-FRET (LanthaScreen TR-FRET FXR co-activation assay kit). The format is biochemical. To be noted: Table 1.1, FXR antagonistic activity; TR-FRET with CDCA; geometric means of at least two independent runs. A digest of the protocol:
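FXR-LBD (20 nM working solution) mixed with compound, CDCA (200 μM working solution) as agonist, Fluorescein-SRC2-2 and Tb-anti-GST antibody in Coregulator buffer G; 10 h at room temperature. Coactivator recruitment read by TR-FRET, triplicate wells.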
A general note: TR-FRET usually uses a lanthanide donor and a delayed reading to cut background.
Consider `CCOC(=O)c1oc2ccc(S(=O)(=O)N(CCc3ccccc3)Cc3ccccc3Br)cc2c1C` [Example M4-16, ethyl 3-methyl-5-(N-(2-bromobenzyl)-N-phenethylsulfamoyl)benzofuran-2-carboxylate], for which the IC50 is 50 to 100 µM.

As to `CCOC(=O)c1oc2ccc(S(=O)(=O)N(CCc3ccccc3)Cc3ccc(CC(=O)OC)cc3)cc2c1C` [Example M4-41, ethyl 3-methyl-5-(N-(4-(2-methoxy-2-oxoethyl)benzyl)-N-phenethylsulfamoyl)benzofuran-2-carboxylate], the IC50 lay in the range of 50 to 100 µM.

In the case of `CCOC(=O)c1oc2ccc(S(=O)(=O)N(CCc3ccccc3)c3ccccc3N3CCN(C(=O)c4ccccc4)CC3)cc2c1C` [Example M10-96], the IC50 lay in the range of 50 to 100 µM.

Take `CCOC(=O)c1oc2ccc(S(=O)(=O)N(CCc3ccccc3)Cc3ccccc3N3CCN(C(=O)CC(C)(C)C)CC3)cc2c1C` [Example M10-103, ethyl 3-methyl-5-(N-(2-(4-(3,3-dimethylbutyryl)piperazin-1-yl)benzyl)-N-phenethylsulfamoyl)benzofuran-2-carboxylate]: the IC50 lay in the range of 50 to 100 µM.

With `CCOC(=O)c1oc2ccc(S(=O)(=O)N(CCc3ccccc3)Cc3cccc(N4CCN(C(=O)OC(C)(C)C)CC4)c3)cc2c1C` [Example M8-88, ethyl 3-methyl-5-(N-(3-(4-(tert-butoxycarbonyl)piperazin-1-yl)benzyl)-N-phenethylsulfamoyl)benzofuran-2-carboxylate], the IC50 was in the range of 50 to 100 µM.

`CCOC(=O)c1oc2ccc(S(=O)(=O)N(CCc3ccccc3)Cc3cccc(F)c3)cc2c1C` [Example M4-20, ethyl 3-methyl-5-(N-(3-fluorobenzyl)-N-phenethylsulfamoyl)benzofuran-2-carboxylate] had an IC50 of 50 to 100 µM.

Consider `CCOC(=O)c1oc2ccc(S(=O)(=O)N(CCc3ccccc3)Cc3ccc(C(=O)OC)cc3)cc2c1C` [Example M4-39, ethyl 3-methyl-5-(N-(4-(methoxycarbonyl)benzyl)-N-phenethylsulfamoyl)benzofuran-2-carboxylate], for which the IC50 fell in the range of 50 to 100 µM.

Molecule `CCOC(=O)c1oc2ccc(S(=O)(=O)N(CCc3ccccc3)c3ccccc3N3CCN(C(C)=O)CC3)cc2c1C` [Example M10-91, ethyl 3-methyl-5-(N-(2-(4-acetylpiperazin-1-yl)phenyl)-N-phenethylsulfamoyl)benzofuran-2-carboxylate] returned an IC50 of 50 to 100 µM.

Molecule `CCOC(=O)c1oc2ccc(S(=O)(=O)N(CCc3ccccc3)Cc3ccc(Cl)cc3Cl)cc2c1C` [Example M4-60, ethyl 3-methyl-5-(N-(2,4-dichlorobenzyl)-N-phenethylsulfamoyl)benzofuran-2-carboxylate] returned an IC50 of 50 to 100 µM.

The experiment is the same for the next values; noted with them: Table 1.2, FXR antagonistic activity; TR-FRET with CDCA; geometric means of at least two independent runs.
Molecule `CCOC(=O)c1oc2ccc(S(=O)(=O)N(CCc3ccccc3)c3ccccc3N3CCN(C(=O)c4ccc(C)c(C)c4)CC3)cc2c1C` [Example M10-132, Ethyl 5-(N-(2-(4-(3,4-Dimethylbenzoyl)piperazin-1-yl)phenyl)-N-phenethylsulfamoyl) 3-methylbenzofuran-2-carboxylate] displayed an IC50 of 50 to 100 µM.

As for `Cc1ccc(C(=O)N2CCN(c3ccccc3N(CCc3ccccc3)S(=O)(=O)c3ccc4oc(C(=O)O)c(C)c4c3)CC2)cc1C` [Example F27-S132, 5-(N-(2-(4-(3,4-dimethylbenzoyl)piperazin-1-yl)phenyl)-N-phenethylsulfamoyl)3-methylbenzofuran-2-carboxylic acid], the IC50 was in the range of 0.1 to 10 µM.

As to `O=C(O)c1cc2ccc(S(=O)(=O)N(CCc3ccccc3)c3ccccc3N3CCN(C(=O)c4sccc4Br)CC3)cc2s1` [Example F27-S160, 6-(N-(2-(4-(3-bromothiophene-2-carbonyl)piperazin-1-yl)phenyl)-N-phenethylsulfamoyl)benzo[b]thiophene-2-carboxylic acid], the IC50 was in the range of 0.1 to 10 µM.

`Cc1c(C(=O)O)oc2ccc(S(=O)(=O)N(CCc3ccccc3)c3ccccc3N3CCN(C(=O)c4ncc[nH]4)CC3)cc12` [Example F27-S142, 5-(N-(2-(4-(1H-imidazole-2-formyl)piperazin-1-yl)phenyl)-N-phenethylsulfamoyl)3-methylbenzofuran-2-carboxylic acid] came in with an IC50 of 0.1 to 10 µM.

`CCOC(=O)c1oc2ccc(S(=O)(=O)N(CCc3ccccc3)c3ccccc3N3CCN(C(=O)c4cncs4)CC3)cc2c1C` [Example M10-129, Ethyl 3-methyl-5-(N-phenethyl-N-(2-(4-(thiazole-5-carbonyl)piperazin-1-yl)phenyl)sulfamoyl)benzofuran-2-carboxylate] gave an IC50 of 50 to 100 µM.

For `Cc1ccccc1C(=O)N1CCN(c2ccccc2N(CCc2ccccc2)S(=O)(=O)c2ccc3oc(C(=O)O)c(C)c3c2)CC1` [Example F27-S107, 3-methyl-5-(N-(2-(4-(2-methylbenzoyl)piperazin-1-yl)phenyl)-N-phenethylsulfamoyl)benzofuran-2-carboxylic acid], the IC50 was 0.1 to 10 µM.

The molecule `CCOC(=O)c1sc2ccc(S(=O)(=O)N(CCc3ccc(C#N)cc3)c3ccccc3N3CCN(C(=O)c4sccc4Br)CC3)cc2c1C` [Example M10-168] registered an IC50 of 50 to 100 µM.

With `CCOC(=O)c1sc2ccc(S(=O)(=O)N(CCc3ccc(C)cc3)c3ccccc3N3CCN(C(=O)c4sccc4Br)CC3)cc2c1C` [Example M10-166, Ethyl 5-(N-(2-(4-(3-bromothiophene-2-carbonyl)piperazin-1-yl)phenyl)-N-(4-methylphenylethyl)sulfamoyl)-3-methylbenzothiophene-2-carboxylate], the IC50 lay in the range of 50 to 100 µM.

Turning to `CCOC(=O)c1oc2ccc(S(=O)(=O)N(CCc3ccccc3)c3ccccc3N3CC4CC(C3)N4C(=O)c3sccc3Br)cc2c1C` [Example M10-151, Ethyl 5-(N-(2-(6-(3-bromothiophene-2-carbonyl)-3,6-diazabicyclo[3.1.1]heptan-3-yl)phenyl)-N-phenethylsulfamoyl)-3-methylbenzofuran-2-carboxylate], the IC50 was in the range of 50 to 100 µM.

As for `CCOC(=O)c1oc2ccc(S(=O)(=O)N(CCc3ccccc3)c3ccccc3N3CCN(C(=O)c4cccnc4)CC3)cc2c1C` [Example M10-116, Ethyl 3-methyl-5-(N-(2-(4-nicotinoylpiperazin-1-yl)phenyl)-N-phenethylsulfamoyl)benzofuran-2-carboxylate], the IC50 was in the range of 50 to 100 µM.

`CC(=O)c1ccc(C(=O)N2CCN(c3ccccc3N(CCc3ccccc3)S(=O)(=O)c3ccc4oc(C(=O)O)c(C)c4c3)CC2)cc1` [Example F27-S115, 5-(N-(2-(4-(4-acetylbenzoyl)piperazin-1-yl)phenyl)-N-phenethylsulfamoyl)-3-methylbenzofuran-2-carboxylic acid] had an IC50 of 0.1 to 10 µM.

`CCOC(=O)c1oc2ccc(S(=O)(=O)N(CCc3ccccc3)c3ccccc3N3CCN(C(=O)c4ccccc4C)CC3)cc2c1C` [Example M10-107, Ethyl 3-methyl-5-(N-(2-(4-(2-methylbenzoyl)piperazin-1-yl)phenyl)-N-phenethylsulfamoyl)benzofuran-2-carboxylate]: the IC50 fell in the range of 50 to 100 µM.

In the case of `Cc1c(C(=O)O)oc2ccc(S(=O)(=O)N(CCc3ccccc3)c3ccccc3N3CCC(NC(=O)c4sccc4Br)CC3)cc12` [Example F27-S147, 5-(N-(2-(4-(3-bromothiophene-2-carboxamido)piperidin-1-yl)phenyl)-N-phenethylsulfamoyl)-3-methylbenzofuran-2-carboxylic acid], the IC50 was in the range of 0.1 to 10 µM.

As to `C/C=C/C(=O)N1CCN(c2ccccc2N(CCc2ccccc2)S(=O)(=O)c2ccc3oc(C(=O)OCC)c(C)c3c2)CC1` [Example M10-120, (E)ethyl-5-(N-(2-(4-(but-2-enoyl)piperazin-1-yl)phenyl)-N-phenethylsulfamoyl)-3-methylbenzofuran-2-carboxylate], the IC50 lay within 50 to 100 µM.

For `CCOC(=O)c1oc2ccc(S(=O)(=O)N(CCc3ccccc3)c3ccccc3N3CCN(C(=O)C4CCCS4)CC3)cc2c1C` (stereo not shown) [Example M10-143, Ethyl 5-(N-(2-(4-(tetrahydrothiophene-2-formyl)piperazin-1-yl)phenyl)-N-phenethylsulfamoyl)3-methylbenzofuran-2-carboxylate], the IC50 was in the range of 50 to 100 µM.

`Cc1c(C(=O)O)oc2ccc(S(=O)(=O)N(CCc3ccccc3)c3ccccc3N3CCN(C(=O)c4sccc4Br)C[C@H]3C)cc12` [Example F27-S153, (R)-5-(N-(2-(4-(3-bromothiophene-2-carbonyl)-2-methylpiperazin-1-yl)phenyl)-N-phenethylsulfamoyl)-3-methylbenzofuran-2-carboxylic acid] displayed an IC50 of 0.1 to 10 µM.

In turn, `Cc1csc(C(=O)N2CCN(c3ccccc3N(CCc3ccccc3)S(=O)(=O)c3ccc4oc(C(=O)O)c(C)c4c3)CC2)c1` [Example F27-S140, 5-(N-(2-(4-(4-methylthiophene-2-formyl)piperazin-1-yl)phenyl)-N-phenethylsulfamoyl)3-methylbenzofuran-2-carboxylic acid] registered a concentration for half-maximal inhibition (IC50) of 0.1 to 10 µM.

As for `CCOC(=O)c1sc2ccc(S(=O)(=O)N(CCc3ccccc3[N+](=O)[O-])c3ccccc3N3CCN(C(=O)c4sccc4Br)CC3)cc2c1C` [Example M10-174], the IC50 was 50 to 100 µM.

In turn, `CCOC(=O)c1oc2ccc(S(=O)(=O)N(CCc3ccccc3)c3ccccc3N3CCN(C(=O)c4ccccn4)CC3)cc2c1C` [Example M10-117, ethyl 3-methyl-5-(N-phenethyl-N-(2-(4-pyridineformylpiperazin-1-yl)phenyl)sulfamoyl)benzofuran-2-carboxylate] registered an IC50 of 50 to 100 µM.
